One experiment has as its system NMDAR. Description: Ca2+ imaging of hippocampal brain slices, NMDA+glycine application (NMDA reaction), HFD-fed mice. The conditions noted are these: slices of HFD-fed mice given PER 5 mg/kg/day orally, 50 μM NMDA + 10 μM glycine, N=5. It is filed as cell-based, mouse.
In experiment [1] the test system is calcium-permeable AMPA receptor. Description: Ca2+ imaging of hippocampal slices of Alzheimer's disease model mice (NL, NLGF). Type of experiment: cell-based, mouse. The note with it: Alzheimer's disease model (NL and NLGF) mice fed CD.
A short description of experiment [2]: Body weight monitoring of HFD-fed mice. Type of experiment: in vivo, mouse. The protocol:
Male C57BL/6J background and ob/ob mice were obtained from CLEA Japan Inc. and Japan SLC, respectively (3). The reason why male mice were selected is that it has been reported that male mice are susceptible to HFD, such as weight gain, metabolic changes, and disorder of learning and hippocampal synaptic plasticity. These animals were housed 3 to 4 per cage in a standard 12 hour dark-light cycle room at 25° C. in an environment with freely available food and water. All animal experiments were performed in accordance with the guidelines of the Animal Experiment Ethics Committee of the University of the Ryukyus. Time series changes in average food intake and average body weight were monitored in each condition.
Post-weaning (6 weeks) food intake and body weight of mice maintained on control diet (CD), high-fat diet (HFD), or HFD containing PER (Fycompa (trademark), Eisai, Japan) (5 mg/kg/day) was monitored up to 18 w (FIGS. 2, E and F). […]
Mice were then split into an HFD-fed group (n=5) and a PER-containing HFD-fed group (n=5) under the condition of the same feeding amount (refer to lower Panel of FIG. 25) and their body weights monitored.

The next experiment concerns HFD-fed mice. Description: Five-trial social memory assay, HFD-fed mice. It is filed as in vivo, mouse. The conditions noted are these: HFD-fed mice with PER treatment. As to the method:
Five-trial social tests were performed as previously described (19). In summary, subject mice with CD, HFD, and HFD with PER treatment were housed individually starting 7 days before the study to establish territory dominance. On the day of the test, a female mouse was presented in the cages of subject male mice, which is a subject (FIG. 2G), and 5 min trials were performed 4 times in succession at 10 min intervals. In the fifth trial, a novel female mouse was presented (FIG. 2G) and the duration of the social investigation was recorded.

A further experiment deals with HFD mice. Description: Golgi staining of hippocampus, HFD mice. It is filed as in vivo, mouse. The conditions noted are these: HFD mice with PER. The source says:
Coronal sections of mouse brains from Bregma −0.94 mm to Bregma −4.04 mm (5 mm wide, including the entire hippocampus from dorsal to ventral, medial to lateral) were fixed with 4% paraformaldehyde for 2 days, and then stained with the Golgi Cox staining system (FD Rapid GolgiStain™ Kit, MD 21041, USA). The impregnated tissues were cut into 100 μm sections and counterstained with crystal violet, and the total number of 15 μm spines on the apical dendrites of CA1 and DG and the percentage of morphologic spines (thin, stubby, mushroom) were examined using an Axio Observer Z1 (Carl Zeiss, Germany). Another set of paraformaldehyde-fixed 5 mm wide coronal sections of the brain, including the entire hippocampus, were processed using the passive CLARITY technique (PACT) (62) and examined through Lightsheet Z.1 (Carl Zeiss, Germany) using a 10× clear objective lens, and 3D images of Thy1-YFPH transgenic mice (the Jackson Laboratory, stock number: 003709, strain name: B6.Cg-Tg.(Thy1-YFP)16Jrs/J) (63, 64), HFD-fed mice, and whole hippocampus of the HFD-fed mice with PER treatment. were acquired respectively. Maximum intensity projection images were acquired along the Z dimension, time dimension, and channel dimension to create an output image with the pixel containing the maximum value for all images in the stack at a particular pixel position. […]

Structures are written as SMILES.

For `N#Cc1ccccc1-c1cc(-c2ccccn2)cn(-c2ccccc2)c1=O` [PER, 3-(2-cyanophenyl)-5-(2-pyridyl)-1-phenyl-1,2-dihydropyridine-2-one], the “NMDA reaction CA1 (maximum value of NF525)” value with NMDAR (CA1) is on record as 1.20 ± 0.08 (N = 5). Besides, the “NMDA reaction CA2 (maximum value of NF525)” value with NMDAR (CA2) was 1.20 ± 0.09 (N = 5). For the same compound, the “NMDA reaction CA3 (maximum value of NF525)” value in the experiment with NMDAR (CA3) is recorded as 1.12 ± 0.04 (N = 5). For the same compound, in the experiment on NMDAR (DG), the “NMDA reaction DG (maximum value of NF525)” value is reported as 1.17 ± 0.04 (N = 5). Besides, in the experiment on NMDAR (EC), the “NMDA reaction EC (maximum value of NF525)” value is on record as 1.16 ± 0.06 (N = 5). Further, the “inhibition of NMDAR by the calcium-permeable AMPA receptor” value in experiment [1] is on record as “can be eliminated”. Further, in experiment [2] (HFD containing PER 5 mg/kg/day from 6 weeks, effect started from 16 w compared to HFD), the “body weight of HFD-fed mice” value was “significant inhibition”. Further, in experiment [2] (PER-containing HFD-fed group n=5 vs HFD-fed group n=5), the “body weight under the condition of the same feeding amount” value is “significant body weight loss”. The “social memory (five-trial social interaction test)” value in the experiment on HFD-fed mice is “restored social memory disturbance”. In addition, the “spine maturity in DG” value in the experiment on HFD mice is on record as “immature spines became mature”.
